Ki data for 13 molecules are collected here from ChEMBL document CHEMBL3739338, “Inhibition of carbonic anhydrase isoforms I, II, IV, VII and XII with carboxylates and sulfonamides incorporating phthalimide/phthalic anhydride scaffolds” (Bioorg Med Chem, 2016).

The first experiment deals with Carbonic anhydrase 1 (Homo sapiens, UniProt P00915). The experiment can be described thus: Inhibition of human carbonic anhydrase-1 preincubated for 15 mins by stopped flow CO2 dehydration assay.
Chain of Carbonic anhydrase 1 (P00915 whole entry): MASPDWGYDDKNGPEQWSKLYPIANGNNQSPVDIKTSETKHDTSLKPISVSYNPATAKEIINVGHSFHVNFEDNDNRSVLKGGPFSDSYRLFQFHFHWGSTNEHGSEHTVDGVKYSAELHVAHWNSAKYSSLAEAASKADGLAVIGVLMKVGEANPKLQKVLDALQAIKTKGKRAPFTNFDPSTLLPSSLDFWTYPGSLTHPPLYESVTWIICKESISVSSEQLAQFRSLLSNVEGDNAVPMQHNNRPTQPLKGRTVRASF
On to `O=C(Nc1ccc(I)cc1C(=O)O)c1ccc2c(c1)C(=O)OC2=O`, for which the Ki (in general, a dissociation constant, usually derived from enzyme kinetics or from competition with a known ligand) was more than 10 µM.
On the same count and under the same terms, the result for `CCOC(=O)c1ccc(N2C(=O)c3ccc(C(=O)Nc4ccccc4C(=O)O)cc3C2=O)cc1` reads more than 10 µM; that for `O=C(Nc1ccccc1C(=O)O)c1ccc2c(c1)C(=O)N(c1ccccc1)C2=O`, more than 10 µM.
The molecule `O=C(O)c1ccc(N2C(=O)c3ccc(C(=O)Nc4ccccc4C(=O)O)cc3C2=O)cc1` displayed a Ki of more than 10 µM.

The target in another experiment is Carbonic anhydrase 4 (Homo sapiens, UniProt P22748). Nature of the experiment: Inhibition of human carbonic anhydrase-4 preincubated for 15 mins by stopped flow CO2 dehydration assay.
Chain of Carbonic anhydrase 4 (P22748 whole entry): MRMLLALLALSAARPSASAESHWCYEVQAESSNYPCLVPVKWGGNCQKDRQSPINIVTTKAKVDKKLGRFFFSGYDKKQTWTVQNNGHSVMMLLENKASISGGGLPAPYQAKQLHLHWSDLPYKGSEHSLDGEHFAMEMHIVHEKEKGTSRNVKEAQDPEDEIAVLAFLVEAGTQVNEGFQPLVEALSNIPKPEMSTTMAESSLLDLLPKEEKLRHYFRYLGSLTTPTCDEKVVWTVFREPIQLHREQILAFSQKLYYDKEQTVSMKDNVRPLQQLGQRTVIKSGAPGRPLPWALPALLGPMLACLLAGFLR
On to `O=C(Nc1ccc(I)cc1C(=O)O)c1ccc2c(c1)C(=O)OC2=O`, for which the Ki was more than 10 µM.
On the same count and under the same terms, the result for `O=C(Nc1ccc(Cl)cc1C(=O)O)c1ccc2c(c1)C(=O)OC2=O` reads more than 10 µM; that for `COc1cc(NC(=O)c2ccc3c(c2)C(=O)OC3=O)c(C(=O)O)cc1OC`, more than 10 µM; that for `O=C(Nc1ccccc1C(=O)O)c1ccc2c(c1)C(=O)N(c1ccccc1)C2=O`, more than 10 µM.

In another experiment the target is Carbonic anhydrase 2 (Homo sapiens, UniProt P00918). The experiment can be described thus: Inhibition of human carbonic anhydrase-2 preincubated for 15 mins by stopped flow CO2 dehydration assay.
`O=C(Nc1ccc(I)cc1C(=O)O)c1ccc2c(c1)C(=O)OC2=O`: the Ki is more than 10 µM.
The same measure, in the same setting: the result for `NS(=O)(=O)c1ccc(CCN2C(=O)c3ccc(C(=O)Nc4ccccc4C(=O)O)cc3C2=O)cc1` reads 0.0138 µM.
The same measure, in the same setting: the result for `Cc1ccc(NC(=O)c2ccc3c(c2)C(=O)OC3=O)c(C(=O)O)c1` reads more than 10 µM.
Same read-out and setting: the result for `CCOC(=O)c1ccc(N2C(=O)c3ccc(C(=O)Nc4ccccc4C(=O)O)cc3C2=O)cc1` reads more than 10 µM; that for `COc1cc(NC(=O)c2ccc3c(c2)C(=O)OC3=O)c(C(=O)O)cc1OC`, more than 10 µM; that for `O=C(Nc1ccccc1C(=O)O)c1ccc2c(c1)C(=O)OC2=O`, more than 10 µM.
Consider `O=C(Nc1ccccc1C(=O)O)c1ccc2c(c1)C(=O)N(CCc1ccccc1)C2=O`, for which the Ki is more than 10 µM.
The same measure, in the same setting: the result for `O=C(Nc1ccccc1C(=O)O)c1ccc2c(c1)C(=O)N(Cc1ccccc1)C2=O` reads more than 10 µM.
Take `NS(=O)(=O)c1ccc(N2C(=O)c3ccc(C(=O)Nc4ccccc4C(=O)O)cc3C2=O)cc1`: affinity was put at a Ki of 0.0089 µM.
The same measure, in the same setting: the result for `NS(=O)(=O)c1ccc(CN2C(=O)c3ccc(C(=O)Nc4ccccc4C(=O)O)cc3C2=O)cc1` reads 0.0105 µM; that for `O=C(Nc1ccccc1C(=O)O)c1ccc2c(c1)C(=O)N(c1ccccc1)C2=O`, more than 10 µM; that for `O=C(O)c1ccc(N2C(=O)c3ccc(C(=O)Nc4ccccc4C(=O)O)cc3C2=O)cc1`, more than 10 µM.
